In patent US6711436B1, “Compositions, apparatus and methods for facilitating surgical procedures” (priority 1997, dated 2004):
Values joined by “and” are separate entries in the source; they are usually repeats but may differ in a detail not shown here. Identical values can stand only once.

Tested on: heart
Test: In vivo swine study of carbachol alone vs carbachol plus propranolol, intracoronary, to induce ventricular asystole
Conditions: individual swine
Experimental: Eleven male crossbred swine weighing 20-25 kg were studied, eight of which received carbachol alone and three of which received carbachol plus propranolol. The swine were sedated using 10 mg/kg IV ketamine. After 20 minutes, the animals were induced with 10 mg/kg IV thiopental sodium and orotracheally intubated. The proper anesthetic plane was maintained with 1% Isoflurane. Periodic arterial blood gas samples were obtained to guide ventilator management. The electrocardiograph was continuously monitored. Through a 7 Fr sheath in the left femoral artery, arterial blood samples were obtained and a micromanometer was inserted to monitor central aortic blood pressure (Millar Instruments, Inc., Houston, Tex.). The heart was exposed through a median sternotomy and suspended in a pericardial cradle. Two temporary epicardial pacing wires were affixed to the right ventricle and connected to an external pacemaker (Medtronic, Inc., Minneapolis, Minn.). The pacemaker was modified to permit deactuation by means of depressing a foot pedal. Through the femoral sheath, an AR-1 guide (Cordis Corp., Miami Lakes, Fla.) was placed into the right coronary artery. An 0.014-inch floppy guide wire was then advanced into the right coronary artery to the level of the posterior descending coronary artery. The AR-1 guide was removed and a 2.5 Fr Tracker (Cordis Corp., Miami Lakes, Fla.) catheter was inserted over the guide wire. Using dye injection, the catheter was positioned just proximal to the take-off of the atrioventricular node artery. Carbachol (Sigma St. Louis, Mo.) solution was prepared the day of the experiment and infused at a constant rate using a Harvard pump.
Animals received either carbachol alone or carbachol in combination with propranolol (Inderal®, Wyeth Ayerst, Philadelphia, Pa.). All animals were instrumented and allowed 10 minutes of hemodynamic stability. Before carbachol was administered, each subject received a 500 ml IV bolus of 0.9% sodium chloride.
In the animals receiving carbachol plus propranolol, a 1 mg dose of propranolol (0.04-0.05 mg/kg) was administered through the Tracker catheter. Carbachol was then administered as a 0.5 mg intracoronary bolus (0.02 mg/kg) followed by a constant infusion. […] After carbachol-mediated ventricular asystole was observed, the heart was paced at 100 beats/minute. […] The systolic blood pressure (SBP), diastolic blood pressure (DBP), and […] arterial pressure (MAP) were recorded every five minutes. The duration of ventricular asystole, defined in this example as a heart rate less than twelve beats per minute, was recorded. […] After 75 minutes, the carbachol infusion was stopped and the time required to return to normal sinus rhythm was recorded.

SMILES: C[N+](C)(C)CCOC(N)=O.[Cl-] [carbachol, carbamyl choline chloride]
- time to NSR (normal sinus rhythm) (after carbachol infusion was stopped (after 75 minutes)): 8 min and 3 min
- duration of ventricular asystole (asystole defined as heart rate less than twelve beats per minute, pacemaker turned off 5 s at 60-second intervals): 87 min and 75 min (2×) and 53 min and 24 min and 76 min (2×) and 47 min
- carbachol dose (infusion rate per body weight) achieving ventricular asystole (intracoronary infusion): 86.0 μg/kg/min and 12.2 μg/kg/min and 9.7 μg/kg/min and 20.9 μg/kg/min and 41.9 μg/kg/min and 10.7 μg/kg/min (2×) and 31.0 μg/kg/min
- infusion rate of carbachol necessary to achieve ventricular asystole (intracoronary infusion, doses increased until ventricular asystole observed, combination arm: 1 mg propranolol then 0.5 mg carbachol bolus before infusion): 1.72 mg/min and 0.44 mg/min (5×) and 0.88 mg/min and 0.62 mg/min
